Laboratory results taken from patent publication US20250288557A1, “FORMULATION AND METHOD FOR TREATMENT OF INFECTIONS” (priority 2022, published 2025).
Where two headings read alike, the source gives them in different places.

System: Piglets
Details: for Mortality (%): (number of dead pigs/number of pigs enrolled)x100; for Clinical observations (%): percentage of pigs expressing clinical signs suggestive of product(s) side-effects: po
Description: Safety Study: Studies for safety were conducted. The trials assessed the active ingredients individually and according to various combinations.
Example Safety Study: The following provides the procedure(s) and data collected from the exemplary safety study.
Six different sets of pigs were tested with six different formulations: • 1. […] Statin or Atorvastatin (1.6 mg/dose) • 3. Indomethacin (3.64 mg/dose) • 4. Doxycycline (6 mg/dose) • 5. Cimetidine (18 mg/dose) • 6. Positive control (compounded formulation of Atorvastatin, Indomethacin, […], Doxycycline, and Cimetidine)
Methods: A sow farm negative for Porcine Reproductive and Respiratory Syndrome virus (PRRSv) and Mycoplasma hyopneumoniae and experiencing little to no piglet enteric health challenges was enrolled for the study. Piglets (12-14 days of age) orally received one of the six formulations identified above. When receiving a formulation, 1 mL of assigned treatment was obtained and provided to the Piglets.
At d0 and d1, pen-level fecal consistency was studied. At d1, piglet mortality was recorded.
Fecal scores: Average fecal score (pen-level). Fecal scours 0, 1, 2, and 3 corresponded to normal, pasty, semi-liquid, and liquid feces, respectively, with scores of ≥2 corresponding to diarrhea.
Mortality: %=(number of dead pigs/number of pigs enrolled)×100.

With `CC(C)c1c(C(=O)Nc2ccccc2)c(-c2ccccc2)c(-c2ccc(F)cc2)n1CC[C@@H](O)C[C@@H](O)CC(=O)O` [Atorvastatin] the “Mortality (%)” value (d 0) was 0.0%, the “Mortality (%)” value (d 1) was 0.0% and the “Fecal score of a single litter” value (pig, in vivo) was 1. For the same compound, the “Fecal scores: average fecal score (pen-level)” value (“Fecal scores” for short) (pig, in vivo) was 0.5, the “Palatability (%): percentage of pigs expressing clinical signs suggestive of poor palatability” value (“Palatability (%): percentage” for short) (pig, in vivo) was 0.0% and the “Fecal scores” value (pig, in vivo, 1 day) was 0.0. The “Clinical observations (%): percentage of pigs expressing clinical signs suggestive of product(s) side-effects” value (from here on “Clinical observations (%): percentage”) (pig, in vivo, 0 day) was 0.0% and the “Clinical observations (%): percentage” value (pig, in vivo, 24 h) was 0.0%.
For `CN/C(=N/CCSCc1nc[nH]c1C)NC#N` [Cimetidine], the “Mortality (%)” value (d 0) was 0.0%, the “Mortality (%)” value (d 1) was 0.0% and the “Fecal scores” value (pig, in vivo) was 0.0. For the same compound, the “Palatability (%): percentage” value (pig, in vivo) was 0.0%, the “Fecal scores” value (pig, in vivo, 1 day) was 0.0 and the “Clinical observations (%): percentage” value (pig, in vivo, 0 day) was 0.0%. The “Clinical observations (%): percentage” value (pig, in vivo, 24 h) was 0.0%.
`C[C@H]1c2cccc(O)c2C(=O)C2=C(O)[C@]3(O)C(=O)C(C(N)=O)=C(O)[C@@H](N(C)C)[C@@H]3[C@@H](O)[C@@H]21` [Doxycycline] was tested, and the “Mortality (%)” value (d 0) was 0.0%, the “Mortality (%)” value (d 1) was 0.0% and the “Fecal scores” value (pig, in vivo) was 0.0. The “Palatability (%): percentage” value (pig, in vivo) was 0.0%, the “Fecal scores” value (pig, in vivo, 1 day) was 0.0 and the “Clinical observations (%): percentage” value (pig, in vivo, 0 day) was 0.0%. For the same compound, the “Clinical observations (%): percentage” value (pig, in vivo, 24 h) was 0.0%.
`COc1ccc2c(c1)c(CC(=O)O)c(C)n2C(=O)c1ccc(Cl)cc1` [Indomethacin] was tested, and the “Mortality (%)” value (d 0) was 0.0%, the “Mortality (%)” value (d 1) was 0.0% and the “Fecal scores” value (pig, in vivo) was 0.0. For the same compound, the “Palatability (%): percentage” value (pig, in vivo) was 0.0%, the “Fecal scores” value (pig, in vivo, 1 day) was 0.0 and the “Clinical observations (%): percentage” value (pig, in vivo, 0 day) was 0.0%. The “Clinical observations (%): percentage” value (pig, in vivo, 24 h) was 0.0%.
